Reference: patent publication US20050182129A1, “Hair growth tonic” (priority 2002, published 2005)

What was measured:
Type in all cases: cell-based
GAPDH mRNA = GAPDH mRNA amount (QuantiGene bDNA method), Test Example 4; conditions: Human dermal papilla cell; human dermal papilla cells, 24 hours, concentration at which the mRNA amount is halved, average of 2 wells
Method: (§1) Human dermal papilla cells, which were purchased from Toyobo, were cultured in MEM (Invitrogen) containing 12% FBS.
(§2) The dermal papilla cells in passage 5 were sowed in a 96-well plate to give a density of 1×10^4 cells/well and cultured overnight. Then, the medium was replaced by a medium to which no compound was added or a medium containing the compounds and the culture was continued for additional 24 hours. After the completion of the culture, WNT-5A or GAPDH mRNA amount was measured by using QuantiGene High Volume Kit (Bayer Medical) by the branched DNA (bDNA) signal amplification method (Drug Metabolism and Disposition, 28(5), 608-616 (2000)). In accordance with the protocol attached to QuantiGene High Volume Kit, cells were lysed by using Lysis Mixture and the lysis solution was added to capture plate. Next, a set of probes specific to WNT-5A or GPDH was added and allowed to react at 53° C. for 20 hours. After washing the plate by using 0.1×SSC containing 0.03% lauryl sulfate, an amplification probe comprising bDNA was added and allowed to react at 46° C. for 1 hour. After washing the plate, a labeling probe labeled with alkaline phosphatase was added and allowed to react at 46° C. for 1 hour. After washing the plate, a substrate Lumi-Phos Plus was added and allowed to react at 46° C. for 30 minutes. Then, the luminescence was measured by using WALLAC 1420ARVOsx.
As GAPDH-specific probe set, use was made of bDNA probe set for human GAPDH (XenoTech LLC, B0960).
(§3) The amounts of WNT-5A and GAPDH mRNAs are expressed in relative values (%) to the control case of adding of no compound and the concentration of a compound at which the mRNA amount is halved (IC50) is calculated as an index of WNT-5A mRNA decreasing activity of the corresponding compound.

[1] = system: Human dermal papilla cells; assay: Dermal papilla cell growth promoting activity (WST-1, spheroid culture), Test Example 5; conditions: for activity at 1 µM / activity at 4 µM / activity at 16 µM: Homo sapiens, Human dermal papilla cell, 72 hours, average of 3 wells, read-out: ΔO.D. 450 nm/620 nm (% of control); for growth promoting activity on dermal papilla cells: at 1 μM; for growth of dermal papilla cells: no concentration stated
Method: as §1
The dermal papilla cells in passage 5 were sowed in a 96-well plate for spheroid culture to give a density of 1.5×10^4 cells/well and cultured overnight. Then, the medium was replaced by a medium to which no compound was added or a medium containing the compound and the culture was continued for additional 72 hours. After the completion of the culture, cells were counted by using a Cell Counting Kit (Wako Pure Chemicals). Five hours before the completion of the culture, WST-1 reagent at 1/10 amount per medium was added to each medium and then the optical density (O.D. 450 nm/620 nm) of the medium was measured at the completion of the culture. A positive correlation was observed between the cell number and optical density within the range of 0.25 to 4×10^4 cells/well.
In this table, each numerical value means an average of 6 wells (control group) or 3 wells (test groups). To compare the control group to the test groups, Student's t-test was employed: • *:P<0.05, **:P<0.01, ***:P<0.001.

WNT-5A mRNA = assay: Activity of decreasing WNT-5A mRNA amount (QuantiGene bDNA method), Test Example 4; conditions: human dermal papilla cells; for IC50: concentration at which the mRNA amount is halved, average of 2 wells
Method: as §1, §2
The WNT-5A-specific probe set was designed based on the sequence of the coding region of human WNT-5A mRNA. As capture extenders (CEs), 10 probes (SEQ ID NOs:12 to 21) were used; as label extenders (LEs), 31 probes (SEQ ID NOs:22 to 52) were employed; and as blockers, […] (SEQ ID NOs:53 to 60) were employed.
as §3

[2] = Homo sapiens, Human dermal papilla cell, 24 h

Structure (SMILES)	IC50 (GAPDH mRNA)	IC50 (WNT-5A mRNA; [2])	IC50 (WNT-5A mRNA; 24 hours)	activity at 1 µM [1]	activity at 4 µM [1]	activity at 16 µM [1]	growth promoting activity on dermal papilla cells [1]	IC50 (WNT-5A mRNA; Human dermal papilla cell, 24 hours)	growth of dermal papilla cells [1]	WNT-5A mRNA amount / expression in dermal papilla cells (WNT-5A mRNA)
C[C@@H]1C[C@@H]2O[C@H]2CCCCC(=O)Cc2c(Cl)c(O)cc(O)c2C(=O)O1 [Compound 4]	> 30 µM	3.46 µM		97.4 ± 24.4%	148 ± 4.9%	180 ± 6.9%				
O=C1c2no[n+]([O-])c2CCC1NO (stereo not shown) [Compound 24]	21.1 µM			108 ± 6.9%	104 ± 10.5%	120 ± 3.7%		4.74 µM	excellent effect of promoting the growth	
C[C@@H]1CC2OC2C/C=C\C[C@H](O)Cc2c(Cl)c(O)cc(O)c2C(=O)O1 (stereo partly shown) [Compound 38]	> 120 µM	6.42 µM		104 ± 2.6%	89.6 ± 7.3%	125 ± 5.1%				
CC(=O)S[C@@H]1/C=C/CC(=O)Cc2c(Cl)c(O)cc(O)c2C(=O)O[C@H](C)C[C@@H]2O[C@H]21 [Compound 54]	> 30 µM	2.37 µM		80 ± 2.4%	97.1 ± 5.6%	135 ± 0.9%				
CC1C/C=C/C(O)C/C=C/C(=O)Cc2cc(O)cc(O)c2C(=O)O1 (stereo not shown) [Compound 68]	50.6 µM	10.7 µM								
CC1CC2OC2CC(O)CCC(=O)Cc2c(Cl)c(O)cc(O)c2C(=O)O1 (stereo not shown) [Compound 73]	> 120 µM	9.37 µM		91.7 ± 5.7%	81.2 ± 7.8%	206 ± 9.2%				
CC1CC2OC2CC2=CC=C(Cc3c(Cl)c(O)cc(O)c3C(=O)O1)O2 (stereo not shown) [Compound 77]	> 120 µM	8.13 µM		81.6 ± 4.4%	86.3 ± 5%	181 ± 21.7%			promote the growth	effectively inhibit
COc1cc(O)c2c(c1)/C=C/CC(O)C(O)C(=O)/C=C\CC(C)OC2=O (stereo not shown) [Compound 79]	38.2 µM	0.9 µM		87.5 ± 9.9%	98.6 ± 3.6%	120 ± 4.1%			excellent effect of promoting the growth	

Further lines, with some results ahead:

IC50 (GAPDH mRNA)	IC50 (WNT-5A mRNA; [2])	IC50 (WNT-5A mRNA; 24 hours)	Structure (SMILES)	activity at 1 µM [1]	activity at 4 µM [1]	activity at 16 µM [1]	growth promoting activity on dermal papilla cells [1]	IC50 (WNT-5A mRNA; Human dermal papilla cell, 24 hours)	growth of dermal papilla cells [1]	WNT-5A mRNA amount / expression in dermal papilla cells (WNT-5A mRNA)
28.2 µM			C[C@@H]1C[C@@H]2O[C@H]2/C=C\C=C\C(=O)Cc2c(Cl)c(O)cc(O)c2C(=O)O1 [Compound 1, Radicicol]	133 ± 11.6%	184 ± 12.1%	145 ± 13%	significant growth promoting activity			
26.4 µM			CC(=O)Oc1cc(OC(C)=O)c2c(c1Cl)CC(=O)/C=C/C=C\[C@@H]1O[C@H]1C[C@@H](C)OC2=O [Compound 2]	143 ± 10.1%	167 ± 8.5%	241 ± 25.3%	significant growth promoting activity			
> 30 µM	3.47 µM		C[C@@H]1C[C@@H]2O[C@H]2/C=C\C=C\[C@H](O)Cc2c(Cl)c(O)cc(O)c2C(=O)O1 [Compound 5]	110 ± 45%	175 ± 29.2%	236 ± 26.4%				
6.58 µM	< 1 µM	0.63 µM	C[C@@H]1C[C@H](OC=O)[C@@H](Cl)/C=C\C=C\C(=O)Cc2c(Cl)c(O)cc(O)c2C(=O)O1 [Compound 18]	116 ± 9%	147 ± 11.3%	211 ± 25.9%	significant growth promoting activity			
4.29 µM			C[C@@H]1C[C@@H]2O[C@H]2/C=C\C=C\C(=NO)Cc2c(Cl)c(O)cc(O)c2C(=O)O1 [Compound 35]	161 ± 3.5%	182 ± 3.7%	159 ± 18.3%	significant growth promoting activity			
13.5 µM			C[C@@H]1C[C@@H]2O[C@H]2/C=C\C=C\C(=O)Cc2c(Cl)c(OCC(=O)Sc3ccccc3)cc(OCC(=O)Sc3ccccc3)c2C(=O)O1 [Compound 52]	124.5 ± 1%	143 ± 9.5%	197 ± 5.4%	significant growth promoting activity		promote the growth	effectively inhibit
45.5 µM			C[C@@H]1C[C@@H]2O[C@H]2[C@H](Sc2ccccc2)/C=C/CC(=O)Cc2c(Cl)c(O)cc(O)c2C(=O)O1 [Compound 53]	127 ± 14.3%	150 ± 12.8%	184 ± 3.6%	significant growth promoting activity		promote the growth	effectively inhibit
> 30 µM	0.74 µM		CC(=O)S[C@@H]1/C=C\CC(=O)Cc2c(Cl)c(O)cc(O)c2C(=O)O[C@H](C)C[C@@H]2O[C@H]21 [Compound 55]	89 ± 1.8%	127 ± 7.2%	176 ± 9.8%				
80 µM	< 1 µM	0.5 µM	C[C@@H]1C[C@@H]2O[C@H]2/C=C\C=C\C(=O)Cc2c(Cl)c(OC(=O)c3cccnc3)cc(OC(=O)c3cccnc3)c2C(=O)O1 [Compound 58]	123 ± 1.8%	150 ± 9.4%	217 ± 14.5%	significant growth promoting activity		promote the growth	effectively inhibit
109 µM	8.28 µM		CC1C/C=C/C(O)C/C=C/C(=O)Cc2c(Cl)c(O)cc(O)c2C(=O)O1 (stereo not shown) [Compound 65]	92.1 ± 6.7%	87.6 ± 8.7%	141 ± 5.3%				
55.9 µM	8.56 µM		C[C@@H]1C[C@@H]2O[C@H]2/C=C\C=C\C(=O)Cc2c(Cl)c(OC3OC(CO)C(O)C3O)cc(O)c2C(=O)O1 (stereo partly shown) [Compound 76]	80 ± 5.6%	77.1 ± 7%	121 ± 6.3%				
